Source: patent US20090105234A1, “EP4 Receptor Agonist, Compositions and Methods Thereof” (priority 2005, published 2009)

How the values were obtained:
[1] = Ocular tolerability in animal species compared to compounds of WO 2004/085430; assay type: in vivo; conditions: compared to compounds disclosed in WO 2004/085430 (i.e., Example 2)
[2] = Vehicle panel-controlled 5 day ocular tolerability study (topical, bilateral, b.i.d); assay type: in vivo, Dutch-Belted rabbits; conditions: 5 days, 2.2 μM (25 μL) ophthalmic solution
[3] = Eye closure after ocular dosing; assay type: in vivo, New Zealand White rabbits; conditions: versus Example 2 of WO 2004/085430
[4] = Ocular adverse effects (conjuctival hyperemia, partial eye closure, etc.); assay type: in vivo, Cynomolgus Monkeys; conditions: versus Example 2 of WO 2004/085430
ROS 17/2.8 cells = experiment: Intracellular cAMP in osteoblastic cells; assay type: cell-based; conditions: ROS 17/2.8 rat osteosarcoma cells
Procedure: (§1) RCT-1 and RCT-3 are clonal cell lines immortalized by SV40 large T antigen from cells released from fetal rat calvair by a cmbination collagenase/hyaluronidase digestion. RCT-1 cells, derived from cells released during the first 10 minutes of digestion (fraction I), are cultured in RPMI 1640 medium (BRL) with 10% fetal bovine serum and 0.4 mg/ml G418 (BRL). These cells differentiate and express osteoblastic features upon retinoic acid treatment. RCT-3 cells, immortalized from osteoblast-enriched fraction III cells, are cultured in F-12 medium (BRL) with 5% Fetal bovine serum and 0.4 mg/ml G418. TRAB-11 cells are also immortalized by SV40 large T antigen from adult rat tibia and are cultured in RPMI 1640 medium with 10% FBS and 0.4 mg/ml G418. ROS 17/2.8 rat osteosarcoma cells are cultured in F-12 containing 5% FBS. Osteoblast-enriched (fraction III) primary fetal rat calvaria cells are obtained by collagenase/hyaluronidase digestion of calvariae of 19 day-old rat fetuses. See Rodan et al., Growth stimulation of rat calvaria osieoblastic cells by acidic FGF, Endocrinology, 121, 1919-1923 (1987), which is incorporated by reference herein in its entirety. Cells are released during 30-50 minutes digestion (fraction III) and are cultured in F-12 medium containing 5% FBS. […]

RCT-3 cells = experiment: Intracellular cAMP in osteoblastic cells; assay type: cell-based, rat
Procedure: as §1

TRAB-11 cells = experiment: Intracellular cAMP in osteoblastic cells; assay type: cell-based, rat
Procedure: as §1

[5] = tested on: EP4 mRNA in RP-1 periosteal cells; experiment: EP4 mRNA levels (Northern blot) in RP-1 periosteal cells; assay type: cell-based, rat; conditions: 10^−6 M
Procedure: (§2) RP-1 periosteal cells are spontaneously immortalized from primary cultures of periosteal cells from tibae of 4-week old Sprague-Dawley rats and are cultured in DMEM (BRL, Gaithersburg, Md.) with 10% fetal bovine serum (JRH Biosciences, Lenexa, Kans.).
(§3) Total RNA is extracted from the tibial metaphysis or diaphysis and calvaria using a guanidinium isothiocyanate-phenol-chloroform method after pulverizing frozen bone samples by a tissue homogenizer. See P. Chomczynski et al., Single-step method of RNA isolation by acid guanidium thiocyanate-phenol-chloroform extraction., Analyt Biochem, 162, 156-159 (1987), which is incorporated by reference herein in its entirety. RNA samples ([…]) are separated on 0.9% agarose/formaldehyde gels and transferred onto nylon membranes (Boehringer Mannheim, Germany). Membranes are prehybridized in Hybrisol I (Oncor, Gaithersburg, Md.) and 0.5 mg/ml sonicated salmon sperm DNA (Boehringer) at 42° C. for 3 hours and are hybridized at 42° C. with rat EP2 and mouse EP4 cDNA probes labeled with [^32P]-dCTP (Amersham, Buckinghamshire, UK) by random priming using the rediprime kit (Amersham). After hybridization, membranes are washed 4 times in 2×SSC+0.1% SDS at room temperature for a total of 1 hour and once with 0.2×SSC+0.1% SDS at 55° C. for 1 hour and then exposed to Kodak XAR 2 film at −70° C. using intensifying screens. […]

EP4 mRNA in RCT-3 cells = experiment: EP4 mRNA levels (Northern blot) in RCT-3 cells; assay type: cell-based, rat
Procedure: as §1

EP2 mRNA in RP-1 cells = experiment: EP2 mRNA expression (Northern blot) in RP-1 cells; assay type: cell-based, rat
Procedure: as §2, §3

EP4 mRNA in bone tissue = experiment: EP4 mRNA levels in vivo in bone tissue after systemic PGE2; conditions: five-week-old male rats, injected 3-6 mg/Kg
Description: For mRNA localization experiments, 5-week old Sprague-Dawley rats (Charles River) are euthanized by CO2, their tibiae and calvariae are excised, cleaned of soft tissues and frozen immediately in liquid nitrogen. […] Animals are euthanized at several time points post-injection and their tibiae and calvariae, as well as samples from lung and kidney tissues are frozen in liquid nitrogen.
as §3, with “(Amersham).” for “(Amersham). After hybridization, membranes are washed 4 times in 2×SSC+0.1% SDS at room temperature for a total of 1 hour and once with 0.2×SSC+0.1% SDS at 55° C. for 1 hour and then exposed to Kodak XAR 2 film at −70° C. using intensifying screens.”

EP2 mRNA in bone tissue = experiment: EP2 mRNA in vivo in bone tissue after systemic PGE2; conditions: rats, systemic administration
Procedure: (§4) For mRNA localization experiments, 5-week old Sprague-Dawley rats (Charles River) are euthanized by CO2, their tibiae and calvariae are excised, cleaned of soft tissues and frozen immediately in liquid nitrogen. For EP4 regulation experiments, 6-week old rats are given a single injection of either vehicle (7% ethanol in sterile water) or an anabolic dose of PGE2 (Cayman Chemical, Ann Arbor, Mich.), 3-6 mg/kg in the same vehicle) intraperitoneally. Animals are euthanized at several time points post-injection and their tibiae and calvariae, as well as samples from lung and kidney tissues are frozen in liquid nitrogen.
Total RNA is extracted from the tibial metaphysis or diaphysis and calvaria using a guanidinium isothiocyanate-phenol-chloroform method after pulverizing frozen bone samples by a tissue homogenizer. See P. Chomczynski et al., Single-step method of RNA isolation by acid guanidium thiocyanate-phenol-chloroform extraction., Analyt Biochem, 162, 156-159 (1987), which is incorporated by reference herein in its entirety. RNA samples ([…]) are separated on 0.9% agarose/formaldehyde gels and transferred onto nylon membranes (Boehringer Mannheim, Germany). […]

[6] = tested on: EP4 mRNA in bone marrow cells; experiment: In situ hybridization, localization of EP4 expression in bone; assay type: in vivo; conditions: single anabolic dose, versus vehicle-injected rats
Procedure: as §4
Frozen tibiae are sectioned coronally at […] thickness and sections are mounted on charged slides (Probe On Plus, Fisher Scientific, Springfield, N.J.) and are kept at −70° C. until hybridization. cRNA probes are labeled with ^35S-UTPgS (ICN, Costa Mesa, Calif.) using a Riboprobe II kit (Promega Madison, Wis.). Hybridization is performed overnight at 50° C. See M. Weinreb et al., Different pattern of alkaline phosphalase, osteopontin and osteocalcin expression in developing rat bone visualized by in-situ hybridization, J. Bone Miner Res., 5, 83′-842 (1990) and D. Shinar et al., Expression of alphav and beta3 integrin subunits in rat osteoclasts in situ, J. Bone Miner. Res., 8, 403-414 (1993), which are both incorporated by reference herein in their entirety. […]

| SMILES | ocular tolerability [1] | drug treatment related findings [2] | improvement in eye closure [3] [fold] | improvement in ocular adverse effects (conjuctival hyperemia, partial eye closure, etc.) [4] | effect on intracellular cAMP (ROS 17/2.8 cells) | effect on intracellular cAMP (RCT-3 cells) | effect on intracellular cAMP (TRAB-11 cells) | effect on EP4 mRNA levels [5] | time of peak EP4 mRNA levels after treatment [5] [h] | effect on EP4 mRNA levels (EP4 mRNA in RCT-3 cells) | EP2 mRNA expression before or after treatment (EP2 mRNA in RP-1 cells) | effect on EP4 mRNA levels in the tibial diaphysis (EP4 mRNA in bone tissue) | time of peak EP4 mRNA levels in the tibial diaphysis after injection (EP4 mRNA in bone tissue) [h] | induction of EP2 mRNA in bone tissue (EP2 mRNA in bone tissue) | expression of EP4 in bone marrow cells [6] |
| --- | --- | --- | --- | --- | --- | --- | --- | --- | --- | --- | --- | --- | --- | --- | --- |
| CC(C)OC(=O)c1ccc(CCCN2C(=O)OCC[C@@H]2/C=C/[C@@H](O)C(F)(F)c2cccc(Br)c2)s1 [Example 1, Isopropyl 5-(3-{(4R)-4-[(1E,3R)-4-(3-bromophenyl)-4,4-difluoro-3-hydroxybut-1-en-1-yl]-2-oxo-1,3-oxazinan-3-yl}propyl)thiophene-2-carboxylate] | improved ocular tolerability | no drug treatment related findings | 5 | 3-5 fold | – | – | – | – | – | – | – | – | – | – | – |
| CCCCC[C@H](O)/C=C/[C@H]1[C@H](O)CC(=O)[C@@H]1C/C=C\CCCC(=O)O [PGE2] | – | – | – | – | no effect | markedly induced | markedly induced | rapidly increases EP4 mRNA levels | 2 | no effect on EP4 mRNA levels | not expressed | rapidly increased EP4 mRNA levels | 2 | does not induce EP2 mRNA | increased the expression of EP4 |
